{"source": "patent US7897364B2", "about": "“Method for determining inhibitors of neurotrypsin” (University of Zurich, priority 2005, dated 2011)", "key": {"[1]": {"target": "T1, Trypsin (Sus scrofa, UniProt P00761)", "T1 construct": "Trypsin from hog pancreas; purchased Fluka Chemie AG; host or cells: hog pancreas", "T1 sequence (P00761 9-231)": "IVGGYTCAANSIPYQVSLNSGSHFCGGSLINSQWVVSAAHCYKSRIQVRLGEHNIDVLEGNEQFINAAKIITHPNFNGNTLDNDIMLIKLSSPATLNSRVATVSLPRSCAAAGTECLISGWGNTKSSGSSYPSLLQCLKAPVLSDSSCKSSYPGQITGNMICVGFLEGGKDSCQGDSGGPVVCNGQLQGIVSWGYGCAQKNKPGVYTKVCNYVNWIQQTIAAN", "test": "Specificity test, photometric pNA peptide substrate assay: trypsin", "type": "biochemical, hog", "details": "100 μM compound; substrate Bz-FVR-pNA; 25° C.", "description": "(§1) To check the specificity of a compound found to have an inhibitory effect on human neurotrypsin, standard enzyme kinetic measurements with a set of common serine proteases were performed. A standard photometric assay with commercially available proteases and para-nitroanilide-coupled small peptide substrates was used.\nTrypsin from hog pancreas (16099 U/mg; Fluka Chemie AG, CH-9471 Buchs, Switzerland).\n(§2) Bz-FVR-pNA: N-Benzoyl-Phe-Val-Arg-p-nitroanilide HCl, Bachem AG, CH-4416 Bubendorf, Switzerland.\n(§3) The assay was performed in 100 mM Tris-HCl, 150 mM NaCl, 1 mM CaCl2, 5% DMSO, 0.1% PEG 6000, pH 8.0, with the appropriate amount of protease to measure initial velocities and varying amounts of peptide-p-nitroanilide substrates in a range smaller than 0.1 times KM. For inhibition studies 100 μM compound No. 7 were used. Measurements were done at 25° C. in a Cary 50 Spectrophotometer (VARIAN). Initial velocities were determined using various substrate concentrations below 0.1 times KM to be in the range of direct dependency of the initial velocity from the substrate concentration. Initial velocities were plotted against substrate concentrations in the absence or the presence of the candidate inhibitor No. 7. The compound was used in a concentration of 100 μM."}, "[2]": {"target": "T2, Plasmin (Homo sapiens, UniProt P00747)", "T2 construct": "Plasmin from human plasma; purchased Sigma Aldrich Chemie GmbH; host or cells: human plasma", "T2 sequence (P00747 581-810 limits assumed)": "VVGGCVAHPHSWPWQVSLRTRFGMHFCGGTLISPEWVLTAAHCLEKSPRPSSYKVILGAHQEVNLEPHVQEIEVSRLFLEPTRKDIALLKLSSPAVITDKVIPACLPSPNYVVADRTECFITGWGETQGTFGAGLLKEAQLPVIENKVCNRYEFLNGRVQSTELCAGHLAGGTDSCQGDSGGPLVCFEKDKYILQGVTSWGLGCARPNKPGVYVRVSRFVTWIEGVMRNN", "T2 sequence (P00747 97-580 limits assumed)": "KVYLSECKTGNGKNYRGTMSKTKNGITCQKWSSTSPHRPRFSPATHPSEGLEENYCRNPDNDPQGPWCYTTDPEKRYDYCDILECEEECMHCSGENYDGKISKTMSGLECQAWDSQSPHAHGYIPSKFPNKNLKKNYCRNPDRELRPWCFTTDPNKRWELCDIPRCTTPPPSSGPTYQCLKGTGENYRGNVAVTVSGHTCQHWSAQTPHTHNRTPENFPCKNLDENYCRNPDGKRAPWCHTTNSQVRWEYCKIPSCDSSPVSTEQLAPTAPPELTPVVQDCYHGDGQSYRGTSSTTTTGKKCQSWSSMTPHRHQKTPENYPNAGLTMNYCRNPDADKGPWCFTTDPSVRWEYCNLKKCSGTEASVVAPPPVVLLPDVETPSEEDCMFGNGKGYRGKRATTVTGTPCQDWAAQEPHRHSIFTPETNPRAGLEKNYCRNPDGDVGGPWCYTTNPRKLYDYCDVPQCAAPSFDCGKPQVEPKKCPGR", "test": "Specificity test, photometric pNA peptide substrate assay: plasmin", "type": "biochemical", "details": "100 μM compound; substrate N-Tosyl-GPK-pNA; 25° C.", "description": "as §1\n(§4) Kallikrein from porcine pancreas (43 U/mg solid; Sigma Aldrich Chemie GmbH). Plasmin from human plasma (3.2 U/mg solid; Sigma Aldrich Chemie GmbH).\nN-Tosyl-GPK-pNA: N-Tosyl-Gly-Pro-Lys-p-nitroanilide, #90178, Fluka Chemie AG.\nas §3"}, "[3]": {"target": "T3, Thrombin (Bos taurus, UniProt P00735)", "T3 construct": "Thrombin from bovine plasma; purchased Merck; host or cells: bovine plasma", "test": "Specificity test, photometric pNA peptide substrate assay: thrombin", "type": "biochemical, bovine", "details": "100 μM compound; substrate Bz-FVR-pNA; 25° C.", "description": "as §1\n(§5) Thrombin from bovine plasma (50 NIH/mg, Merck, D-64271 Darmstadt, Germany). Urokinase HS medac (100000 I.E.; medac Gesellschaft für klinische Spezialpräparate mbH, D-22880 Wedel, Germany).\nas §2, §3"}, "[4]": {"target": "T4, mouse neurotrypsin (Mus musculus, UniProt O08762)", "T4 construct": "made in house; host or cells: mouse myeloma cell line J558L", "T4 sequence (O08762 22-761)": "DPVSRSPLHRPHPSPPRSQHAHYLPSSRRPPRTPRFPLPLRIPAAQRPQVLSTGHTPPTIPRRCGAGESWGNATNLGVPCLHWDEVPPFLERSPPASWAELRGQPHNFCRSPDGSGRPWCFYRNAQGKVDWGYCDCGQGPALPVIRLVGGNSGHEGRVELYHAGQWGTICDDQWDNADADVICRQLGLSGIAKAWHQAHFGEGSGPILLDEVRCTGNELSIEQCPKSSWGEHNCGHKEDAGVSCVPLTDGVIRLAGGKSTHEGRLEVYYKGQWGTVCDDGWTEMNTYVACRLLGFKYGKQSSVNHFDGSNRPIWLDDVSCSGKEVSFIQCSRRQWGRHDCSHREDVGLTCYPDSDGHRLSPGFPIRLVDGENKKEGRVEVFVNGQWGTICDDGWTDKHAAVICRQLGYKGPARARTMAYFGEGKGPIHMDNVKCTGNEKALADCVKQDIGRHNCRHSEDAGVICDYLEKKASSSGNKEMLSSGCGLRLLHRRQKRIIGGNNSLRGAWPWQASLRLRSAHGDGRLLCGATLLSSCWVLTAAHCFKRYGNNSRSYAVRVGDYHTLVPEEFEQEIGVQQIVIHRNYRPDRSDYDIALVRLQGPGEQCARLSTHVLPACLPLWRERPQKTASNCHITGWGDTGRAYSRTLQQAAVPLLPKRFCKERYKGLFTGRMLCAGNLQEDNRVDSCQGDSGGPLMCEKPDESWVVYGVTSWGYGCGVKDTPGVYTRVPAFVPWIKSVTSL", "test": "Dose dependence of neurotrypsin inhibition (agrin-EGFP cleavage, Western blot)", "type": "biochemical", "details": "0 to 200 μM compound; agrin-EGFP substrate; Western blot quantification; read-out: IC50 value (half-maximum amount of product)", "text": "(A) Western blot detection of the 150 kDa C-terminal fragment of agrin (Ag-CF) generated by neurotrypsin-mediated cleavage of agrin-EGFP in dependence of the concentration of compound No. 7, N^1-amidino-N^4-(3,5-dibromosalicylidene)-sulfanilamide.\n(B) Graphic plot of the intensity data from (A) against the inhibitor concentration with I=100% intensity for agrin+mouse neurotrypsin without addition of inhibitor compound No. 7.\nThe inhibitory activity of small-molecule compounds on the catalytic activity of neurotrypsin is measured in 150 mM NaCl, 5 mM CaCl2, 5% DMSO, 0.1% PEG 6000, and 20 mM MOPS, pH 7.5 in 0.5 ml low protein-binding Eppendorf tubes in a total volume of 15 μl. Human or murine neurotrypsin or catalytically active truncated versions of neurotrypsin are used at a concentration that results in cleavage of 80% of the substrate within 3 hours. As substrate, engineered soluble agrin, for example 0.1-1 μM agrin-EGFP (Example 20) or 0.1-3 μM engineered agrin-C45 (Example 21), is used. Inhibitor solution in 10 mM MOPS, pH 7.5, containing 5% DMSO is added to a final concentration of either 25 or 150 μM. […]\nDifferent concentrations of compound No. 7 from 0 to 200 μM were tested with the assay described in Example 27 with engineered agrin-EGFP as substrate. The generated product was detected by Western blot (FIG. 17 A) and quantified (FIG. 17 B)."}, "[5]": {"target": "T5, tPA (Homo sapiens, UniProt P00750)", "T5 construct": "purchased Dr. Karl Thomae GmbH Actilyse (10 mg)", "T5 sequence (P00750 36-562)": "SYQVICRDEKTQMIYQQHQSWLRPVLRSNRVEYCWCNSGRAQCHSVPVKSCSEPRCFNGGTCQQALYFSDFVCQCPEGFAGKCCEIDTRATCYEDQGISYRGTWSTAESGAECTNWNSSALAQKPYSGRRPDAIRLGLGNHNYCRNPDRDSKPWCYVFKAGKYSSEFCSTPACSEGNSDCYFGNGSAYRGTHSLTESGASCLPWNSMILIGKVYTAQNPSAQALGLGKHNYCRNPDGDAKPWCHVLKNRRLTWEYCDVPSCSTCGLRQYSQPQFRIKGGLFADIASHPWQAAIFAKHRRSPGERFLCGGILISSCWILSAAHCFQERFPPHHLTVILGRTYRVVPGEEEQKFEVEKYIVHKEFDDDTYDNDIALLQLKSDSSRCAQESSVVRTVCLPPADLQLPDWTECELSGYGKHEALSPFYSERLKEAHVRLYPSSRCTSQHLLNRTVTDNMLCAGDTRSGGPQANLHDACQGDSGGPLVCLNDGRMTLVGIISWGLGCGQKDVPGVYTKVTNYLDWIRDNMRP", "test": "Specificity test, photometric pNA peptide substrate assay: tPA", "type": "biochemical", "details": "100 μM compound; substrate IPR-pNA; 25° C.", "description": "as §1\ntPA: Actilyse (10 mg; Dr. Karl Thomae GmbH, Birkendorfer Straβe 65, D-88397 Biberach, Germany).\nIPR-pNA: S-2288, Chromogenix-Instrumentation Laboratory SpA.\nas §3"}, "[6]": {"target": "T6, Kallikrein (Sus scrofa, UniProt P00752)", "T6 construct": "Kallikrein from porcine pancreas; purchased Sigma Aldrich Chemie GmbH; host or cells: porcine pancreas", "T6 sequence (P00752 8-246)": "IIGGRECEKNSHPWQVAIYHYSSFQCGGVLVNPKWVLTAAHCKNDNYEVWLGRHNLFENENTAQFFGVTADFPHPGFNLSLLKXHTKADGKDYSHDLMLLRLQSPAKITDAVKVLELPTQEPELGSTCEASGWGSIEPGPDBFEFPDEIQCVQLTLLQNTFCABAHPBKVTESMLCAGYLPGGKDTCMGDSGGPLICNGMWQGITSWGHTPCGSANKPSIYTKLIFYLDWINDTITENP", "test": "Specificity test, photometric pNA peptide substrate assay: kallikrein", "type": "biochemical, porcine", "details": "100 μM compound; substrate Bz-FVR-pNA; 25° C.", "description": "as §1, §4, §2, §3"}, "[7]": {"target": "T7, neurotrypsin (Homo sapiens, UniProt P56730)", "T7 construct": "Human or murine neurotrypsin or catalytically active truncated versions of neurotrypsin are used; made in house; host or cells: mouse myeloma cell line J558L", "T7 sequence (P56730 21-875)": "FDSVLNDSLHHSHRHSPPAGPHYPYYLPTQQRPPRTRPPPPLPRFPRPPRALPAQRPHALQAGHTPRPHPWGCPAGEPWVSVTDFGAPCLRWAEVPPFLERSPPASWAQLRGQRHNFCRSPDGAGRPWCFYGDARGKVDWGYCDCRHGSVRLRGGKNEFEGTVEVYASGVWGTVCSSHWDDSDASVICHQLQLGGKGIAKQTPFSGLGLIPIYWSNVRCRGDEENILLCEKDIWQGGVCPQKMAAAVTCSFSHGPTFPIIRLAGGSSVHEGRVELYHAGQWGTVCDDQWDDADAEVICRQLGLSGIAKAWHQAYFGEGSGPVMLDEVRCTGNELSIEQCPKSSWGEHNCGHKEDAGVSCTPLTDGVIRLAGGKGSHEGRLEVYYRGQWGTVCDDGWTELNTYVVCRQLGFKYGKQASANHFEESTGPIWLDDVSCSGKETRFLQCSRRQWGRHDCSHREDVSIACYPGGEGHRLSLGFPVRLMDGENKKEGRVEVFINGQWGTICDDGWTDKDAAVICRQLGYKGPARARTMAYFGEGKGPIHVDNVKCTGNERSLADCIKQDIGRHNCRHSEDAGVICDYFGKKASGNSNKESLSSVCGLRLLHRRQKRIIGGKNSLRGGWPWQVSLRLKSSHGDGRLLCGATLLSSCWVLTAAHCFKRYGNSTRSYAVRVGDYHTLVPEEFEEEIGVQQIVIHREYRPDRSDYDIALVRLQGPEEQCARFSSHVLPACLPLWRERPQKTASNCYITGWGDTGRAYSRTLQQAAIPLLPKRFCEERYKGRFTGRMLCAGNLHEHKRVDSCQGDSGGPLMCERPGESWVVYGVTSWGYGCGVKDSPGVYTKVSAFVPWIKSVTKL", "test": "Western blot-based screening assay for neurotrypsin inhibitors (agrin-EGFP cleavage)", "type": "biochemical", "details": "inhibitor 25 or 150 μM; agrin-EGFP substrate; 3 h at 37° C.; intensity of 150-kDa fragment on Western blot", "description": "Negative control (−): only agrin-EGFP without neurotrypsin. Positive control (+): agrin-EGFP with addition of neurotrypsin.\nCompounds were dissolved in DMSO to a final concentration of 10 mM. For the assay the solution in DMSO was diluted with 10 mM MOPS, pH 7.5, to a concentration of 500 μM and 5% DMSO (1:20 dilution). Insoluble and precipitated material was removed by centrifugation (15 min, 16 krcf, RT). The cleared supernatant was used for the inhibition assay, as described in Example 27.\nThe inhibitory activity of small-molecule compounds on the catalytic activity of neurotrypsin is measured in 150 mM NaCl, 5 mM CaCl2, 5% DMSO, 0.1% PEG 6000, and 20 mM MOPS, pH 7.5 in 0.5 ml low protein-binding Eppendorf tubes in a total volume of 15 μl. Human or murine neurotrypsin or catalytically active truncated versions of neurotrypsin are used at a concentration that results in cleavage of 80% of the substrate within 3 hours. As substrate, engineered soluble agrin, for example 0.1-1 μM agrin-EGFP (Example 20) or 0.1-3 μM engineered agrin-C45 (Example 21), is used. […]\nOne way of substrate visualization is Western blotting. […] The intensity of the 150-kDa fragments of agrin-EGFP generated by neurotrypsin-mediated cleavage in the presence of the putative inhibitory compounds (FIG. 16 A) are measured and the relative intensities are plotted (FIG. 16 B)."}, "[8]": {"target": "T8, Factor Xa (Bos taurus, UniProt P00743)", "T8 construct": "purchased Sigma Aldrich Chemie GmbH; host or cells: bovine plasma", "T8 sequence (P00743 234-492 limits assumed)": "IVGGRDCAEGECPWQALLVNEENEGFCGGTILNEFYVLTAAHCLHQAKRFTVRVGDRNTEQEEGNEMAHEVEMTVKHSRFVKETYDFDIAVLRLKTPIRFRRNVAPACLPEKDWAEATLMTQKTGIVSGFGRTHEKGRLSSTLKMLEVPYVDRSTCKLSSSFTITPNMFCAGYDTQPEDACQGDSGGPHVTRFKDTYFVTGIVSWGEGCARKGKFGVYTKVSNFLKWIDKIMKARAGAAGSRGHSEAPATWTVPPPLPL", "T8 sequence (P00743 41-180 limits assumed)": "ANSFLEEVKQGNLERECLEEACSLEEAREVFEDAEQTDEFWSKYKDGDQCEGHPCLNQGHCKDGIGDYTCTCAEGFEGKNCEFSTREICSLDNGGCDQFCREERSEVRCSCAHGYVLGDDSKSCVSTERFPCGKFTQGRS", "test": "Specificity test, photometric pNA peptide substrate assay: factor Xa", "type": "biochemical, bovine", "details": "100 μM compound; substrate Bz-IEGR-pNA; 25° C.", "description": "as §1\nFactor Xa activated from bovine plasma (6.1 mg protein/ml; Sigma Aldrich Chemie GmbH, D-89552 Steinheim, Germany).\nBz-IEGR-pNA: S-2222, Chromogenix-Instrumentation Laboratory SpA, 1-20128 Milano, Italy.\nas §3"}, "[9]": {"target": "T9, Urokinase (Homo sapiens, UniProt P00749)", "T9 construct": "purchased medac Gesellschaft für klinische Spezialpräparate mbH Urokinase HS medac (100000 I.E.)", "test": "Specificity test, photometric pNA peptide substrate assay: urokinase", "type": "biochemical", "details": "100 μM compound; substrate Bz-VGR-pNA; 25° C.", "description": "as §1, §5\nBz-VGR-pNA: N-Benzoyl-Val-Gly-Arg-p-nitroanilide, Sigma Aldrich Chemie GmbH.\nas §3"}}, "note": "Entries after “also recorded” stand apart in the source; their conditions may differ."}
{"smiles": "N=C(N)NS(=O)(=O)c1ccc(N=Cc2cc(Br)cc(Br)c2O)cc1", "note": "[Compound No. 7, N^1-amidino-N^4-(3,5-dibromosalicylidene)-sulfanilamide]", "values": [{"measurement": "inhibition of trypsin (initial velocities)", "setting": "[1]", "value": "None of the investigated enzymes showed a significant inhibition; also recorded: No inhibition"}, {"measurement": "inhibition of plasmin (initial velocities)", "setting": "[2]", "value": "None of the investigated enzymes showed a significant inhibition; also recorded: No inhibition"}, {"measurement": "inhibition of thrombin (initial velocities)", "setting": "[3]", "value": "None of the investigated enzymes showed a significant inhibition; also recorded: No inhibition"}, {"measurement": "IC50", "setting": "[4]", "value": "~60", "unit": "µM"}, {"measurement": "inhibition of tPA (initial velocities)", "setting": "[5]", "value": "None of the investigated enzymes showed a significant inhibition; also recorded: No inhibition"}, {"measurement": "inhibition of kallikrein (initial velocities)", "setting": "[6]", "value": "None of the investigated enzymes showed a significant inhibition; also recorded: No inhibition"}, {"measurement": "inhibitory activity on neurotrypsin", "setting": "[7]", "value": "significant inhibitory activity"}, {"measurement": "inhibition of factor Xa (initial velocities)", "setting": "[8]", "value": "None of the investigated enzymes showed a significant inhibition; also recorded: No inhibition"}, {"measurement": "inhibition of urokinase (initial velocities)", "setting": "[9]", "value": "None of the investigated enzymes showed a significant inhibition; also recorded: No inhibition"}]}
